This note sets out measurements from patent US20110015164A1, “METHOD OF TREATING MEN WITH METABOLIC AND ANTH[…]” (priority 2004, published 2011).

Each structure is given as a SMILES string.

This data set relates to men with abdominal obesity, low to low-normal serum total testosterone levels and the metabolic syndrome. Nature of the data set: Placebo-controlled treatment study in abdominally obese men with low to low-normal testosterone and the metabolic syndrome. Particulars: for increasing insulin sensitivity, treatment group relative to placebo / lowering triglycerides, treatment group relative to placebo / reducing visceral adipose tissue, treatment group relative to placebo: end of treatment. How it is done: (§1) Approximately 200 men are recruited with abdominal obesity (waist circumference >102 cm), low to low-normal serum total testosterone levels (<450 ng/dL), and the metabolic syndrome per NCEP criteria. NCEP criteria for diagnosis of the metabolic syndrome in men includes 3 of the following 5 components: Fasting glucose≧110 mg/dL, TG≧150 mg/dL, low HDL-C (<40 mg/dL), high waist circumference (>102 cm), BP≧130/≧85 mmHg. Since the study design calls for inclusion of abdominally obese men with waist circumference >102 cm, patients have at least 2 of the other 4 criteria to satisfy the NCEP criteria for the metabolic syndrome. Patients are randomized to placebo or treatment. Fasting blood samples are taken.
Periodic measurements of insulin/glycemic response to oral glucose tolerance test (OGTT) and insulin sensitivity index, fasting plasma glucose (FPG), fasting lipid profile (includes triglycerides, total cholesterol, low-density lipoprotein cholesterol, non-high-density lipoprotein cholesterol, high-density lipoprotein cholesterol, and free fatty acids), visceral fat mass, and blood pressure are taken.
as §1, with “taken. After a placebo run in, the treatment group receives daily administration of 0.5 mg N-(2,5-bis-trifluoromethyl-phenyl)-3-oxo-4-aza-4-methyl-5α-androst-1-ene-17β-carboxamide (dutasteride).” for “taken.”
as §1, with “glucose ≧110” for “glucose≧110”, “taken. After a placebo run in, the treatment group receives daily administration of N-(2-trifluoromethyl-phenyl)-3-oxo-4-aza-4-methyl-5α-androst-1-ene-17β-carboxamide.” for “taken.”
as §1, with “(≦450” for “(<450”, “glucose ≧110” for “glucose≧110”

[1] abbreviates: Example 6: daily administration (dose not given).

Regarding `Cc1ccc(O[C@H]2C[C@H]3[C@@H]4[C@@H](C)C[C@H]5NC(=O)C=C[C@]5(C)[C@H]4CC[C@]3(C)C2)cc1` [3-oxo-4-aza-7β-methyl-16β-(4-methylphenoxy)-5α-androst-1-ene], under “Example 7: 25 mg daily”, the “tolerability of the treatment” value is on record as “well tolerated”; the “increasing insulin sensitivity, treatment group relative to placebo” value is listed as “significant improvement”; the “lowering triglycerides, treatment group relative to placebo” value is listed as “significant improvement”; the “reducing visceral adipose tissue, treatment group relative to placebo” value is “significant improvement”.

As for `CN1C(=O)C=C[C@]2(C)[C@H]3CC[C@]4(C)[C@@H](C(=O)Nc5ccccc5C(F)(F)F)CC[C@H]4[C@@H]3CC[C@@H]12` [N-(2-trifluoromethyl-phenyl)-3-oxo-4-aza-4-methyl-5α-androst-1-ene-17β-carboxamide], under setting [1], the “tolerability of the treatment” value is reported as “well tolerated”; the “increasing insulin sensitivity, treatment group relative to placebo” value is recorded as “significant improvement”; the “lowering triglycerides, treatment group relative to placebo” value is “significant improvement”; the “reducing visceral adipose tissue, treatment group relative to placebo” value is “significant improvement”.
